# Target: T1, REV-ERBβ (Homo sapiens, UniProt Q14995)
# T1 construct: 6×Histag-REV-ERBα LBD (human; residues 381-579); made in house; host or cells: Escherichia coli
# T1 sequence (Q14995 381-579): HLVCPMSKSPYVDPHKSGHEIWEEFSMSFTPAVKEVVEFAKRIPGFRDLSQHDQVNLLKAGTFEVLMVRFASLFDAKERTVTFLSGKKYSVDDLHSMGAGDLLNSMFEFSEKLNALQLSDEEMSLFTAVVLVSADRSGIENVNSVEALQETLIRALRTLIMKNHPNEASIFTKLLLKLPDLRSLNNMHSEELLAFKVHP
# Test: TR-FRET corepressor interaction assay (REV-ERBβ, FITC-SMRT peptide)
# Assay type: biochemical
# Settings: Table 2, read-out: REVERBβ agonism (EC50 class, FRET assay)
# Description: TR-FRET corepressor interaction assay. The time-resolved fluorescence resonance energy transfer (TR-FRET) assay was performed in black low-volume 384-well plates (Greiner). […] Ligand stocks were prepared via serial dilution in DMSO, added to wells in triplicate, and plates were incubated at 4° C. for 2 h and read using a BioTek Synergy Neo multimode plate reader. The Tb donor was excited at 340 nm; its fluorescence emission was monitored at 495 nm, and the acceptor FITC emission was measured at 520 nm; and the TR-FRET ratio was calculated as the signal at 520 nm divided by the signal at 495 nm. Data were plotted using GraphPad Prism as TR-FRET ratio vs. ligand concentration and fit to sigmoidal dose response curve equation.
# Exemplary compounds of the present disclosure were assayed as described above to assess agonism of REV-ERBα and REV-ERBβ.
row,Structure (SMILES),EC50 [nM]
1,"CC(C)Cc1cn(CCNS(=O)(=O)N(C)C)c2ccc(-c3ccncc3)cc12 [Example 23, dimethyl({2-[3-(2-methylpropyl)-5-(pyridin-4-yl)-1H-indol-1-yl]ethyl}sulfamoyl)amine]",500 to 3000
2,"CC(C)Cn1cc(CCNS(=O)(=O)N(C)C)c2ccc(C3CC3)cc21 [Example 82, N-{2-[6-cyclopropyl-1-(2-methylpropyl)-1H-indol-3-yl]ethyl}-N,N-dimethylsulfuric diamide]",> 3000
3,"CC(C)Cn1cc(CCNS(=O)(=O)N(C)C)c2ccc(-c3ccccc3)cc21 [Compound 30, dimethyl({2-[1-(2-methylpropyl)-6-phenyl-1H-indol-3-yl]ethyl}sulfamoyl)amine]",500 to 3000
4,"CC(C)Cn1cc(CCNS(=O)(=O)N(C)C)c2ccc(-c3ccncc3)cc21 [Compound 27, dimethyl({2-[1-(2-methylpropyl)-6-(pyridin-4-yl)-1H-indol-3-yl]ethyl}sulfamoyl)amine]",500 to 3000
5,"COc1ccccc1-c1ccc2c(CCNS(=O)(=O)N(C)C)cn(CC(C)C)c2c1 [Example 58, N-{2-[6-(2-methoxylphenyl)-1-(2-methylpropyl)-1H-indol-3-yl]ethyl}-N,N-dimethylsulfuric diamide]",> 3000

# Target: T2, REV-ERBα LBD (human; residues 281-614 Δ324-422) (Homo sapiens, UniProt P20393, DEL324-422)
# T2 construct: 6×Histag-REV-ERBα LBD (human; residues 281-614 Δ324-422); made in house; host or cells: Escherichia coli
# Test: TR-FRET corepressor interaction assay (REV-ERBα LBD, FITC-SMRT peptide)
# Assay type: biochemical
# Settings: FITC-SMRT peptide, read-out: REVERBα agonism (EC50 class, FRET assay)
# How it was run: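 Compound serial dilutions (in DMSO, triplicate) incubated 2 h at 4 °C; Tb donor excited at 340 nm, emission read at 495 nm and FITC acceptor at 520 nm. TR-FRET ratio (520/495 nm) plotted against ligand concentration and fitted to a sigmoidal dose-response curve.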
# T2 sequence (P20393 with tags, fused parts or gaps DEL324-422): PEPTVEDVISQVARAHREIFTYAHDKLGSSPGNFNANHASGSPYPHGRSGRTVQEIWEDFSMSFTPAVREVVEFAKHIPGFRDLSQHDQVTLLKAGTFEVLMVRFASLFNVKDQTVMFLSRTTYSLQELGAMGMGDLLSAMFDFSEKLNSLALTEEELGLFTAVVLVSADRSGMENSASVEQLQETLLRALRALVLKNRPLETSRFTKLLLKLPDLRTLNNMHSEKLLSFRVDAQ
# T2 sequence (Q9Y618 2335-2356 partner limits assumed): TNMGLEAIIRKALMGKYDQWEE
row,Structure (SMILES),EC50 [nM]
1,"CC(C)(C)Cn1cc([C@H](NS(=O)(=O)C2CCC2)C(F)(F)F)c2ccc(-c3ccccc3C(F)(F)F)c(F)c21 [Example 544, (S)—N-(2,2,2-trifluoro-1-(7-fluoro-1-neopentyl-6-(2-(trifluoromethyl)phenyl)-1H-indol-3-yl)ethyl)cyclobutanesulfonamide]",< 500
2,"CC(C)(C)Cn1cc([C@H](NS(=O)(=O)C2CC2)C(F)(F)F)c2ccc(-c3ncccc3C#N)cc21 [Example 468, (S)—N-(1-(6-(3-cyanopyridin-2-yl)-1-neopentyl-1H-indol-3-yl)-2,2,2-trifluoroethyl)cyclopropanesulfonamide]",< 500
3,"CC(C)(C)Cn1cc([C@H](NS(=O)(=O)C2CCC2)C(F)(F)F)c2cc(F)c(-c3cnccc3C#N)cc21 [Example 441, (S)—N-(1-(6-(4-cyanopyridin-3-yl)-5-fluoro-1-neopentyl-1H-indol-3-yl)-2,2,2-trifluoroethyl)cyclobutanesulfonamide]",< 500
4,"CC(C)(O)Cn1cc([C@H](NS(=O)(=O)C2CC2)C(F)(F)F)c2cc(F)c(-c3ccccc3C(F)(F)F)cc21 [Example 474, N-[(1S)-2,2,2-trifluoro-1-[5-fluoro-1-(2-hydroxy-2-methyl-propyl)-6-[2-(trifluoromethyl)phenyl]indol-3-yl]ethyl]cyclopropanesulfonamide]",500 to 3000
5,"CC(C)(C)Cn1cc([C@H](NS(=O)(=O)C2CCC2)C(F)F)c2cc(F)c(-c3ccccc3C(F)(F)F)nc21 [Example 533, (S)—N-(2,2-difluoro-1-(5-fluoro-1-neopentyl-6-(2-(trifluoromethyl)phenyl)-1H-pyrrolo[2,3-b]pyridin-3-yl)ethyl)cyclobutanesulfonamide]",< 500
6,"[2H]C([2H])([2H])C(NS(=O)(=O)C1CCC1)c1cn(CC(C)(C)C)c2cc(-c3ccccc3C(F)(F)F)ccc12 (centres unmarked) [Example 509, N-(1-(1-neopentyl-6-(2-(trifluoromethyl)phenyl)-1H-indol-3-yl)ethyl-2,2,2-d3)cyclobutanesulfonamide]",< 500
7,"CC(C)(C)Cn1cc([C@H](NS(=O)(=O)C2CC(F)C2)C(F)(F)F)c2ccc(-c3ccccc3C(F)(F)F)cc21 (stereo partly drawn) [Example 437, (S)-3-fluoro-N-(2,2,2-trifluoro-1-(1-neopentyl-6-(2-(trifluoromethyl)phenyl)-1H-indol-3-yl)ethyl)cyclobutane-1-sulfonamide]",500 to 3000

# Same assay, conditions: Table 2, read-out: REVERBα agonism (EC50 class, FRET assay)
row,Structure (SMILES),EC50 [nM]
1,"CC(C)Cn1cc(CCNS(=O)(=O)N(C)C)c2ccc(-c3cnoc3)cc21 [Compound 65, dimethyl({2-[1-(2-methylpropyl)-6-(1,2-oxazol-4-yl)-1H-indol-3-yl]ethyl}sulfamoyl)amine]",500 to 3000
2,CC(C)Cn1cc(CNS(=O)(=O)C2CCCC2)c2ccc(-c3ccncc3)cc21 [Compound 243],< 500
3,"CC(C)Cn1cc(C(C)(C)CNS(=O)(=O)N(C)C)c2ccc(-c3ccncc3)cc21 [Example 177, dimethyl({2-methyl-2-[1-(2-methylpropyl)-6-(pyridin-4-yl)-1H-indol-3-yl]propyl}sulfamoyl)amine]",500 to 3000
4,"CC(C)Cn1cc(CCNS(=O)(=O)N(C)C)c2ccc(-c3ccc(F)cc3)cc21 [Example 45, N-{2-[6-(4-fluorophenyl)-1-(2-methylpropyl)-1H-indol-3-yl]ethyl}-N,N-dimethylsulfuric diamide]",500 to 3000
5,"CC(C)Cn1cc([C@H](NS(=O)(=O)C2CC2)C(F)(F)F)c2ccc(-c3ccccc3Cl)cc21 [Example 311, (S)—N-(1-(6-(2-chlorophenyl)-1-isobutyl-1H-indol-3-yl)-2,2,2-trifluoroethyl)cyclopropanesulfonamide]",< 500
6,"CC(C)(C)Cc1cn(CCNS(=O)(=O)C2CC2)c2ccc(-c3ccccc3Cl)cc12 [Example 213, N-(2-(5-(2-chlorophenyl)-3-neopentyl-1H-indol-1-yl)ethyl)cyclopropanesulfonamide]",< 500
7,CC(C)Cn1cc(CNS(=O)(=O)CC(C)C)c2ccc(-c3ccncc3)cc21 [Compound 245],< 500
8,"CC(C)(C)Cn1cc([C@H](NS(=O)(=O)C2(C)CC2)C(F)(F)F)c2cc(F)c(-c3ccccc3C(F)(F)F)cc21 [Example 375, (S)-1-methyl-N-(2,2,2-trifluoro-1-(5-fluoro-1-neopentyl-6-(2-(trifluoromethyl)phenyl)-1H-indol-3-yl)ethyl)cyclopropane-1-sulfonamide]",< 500
9,"CC(C)Cn1cc(C(C)NS(=O)(=O)C2CC2)c2ccc(-c3ccccc3C(F)(F)F)cc21 (centres unmarked) [Example 204, N-(1-(1-isobutyl-6-(2-(trifluoromethyl)phenyl)-1H-indol-3-yl)ethyl)cyclopropanesulfonamide]",< 500
10,"CC(C)Cn1cc(CCNS(=O)(=O)N(C)C)c2ccc(OC(C)C)cc21 [Example 118, N′-{2-[6-isopropoxy-1-(2-methylpropyl)-1H-indol-3-yl]ethyl}-N,N-dimethylsulfuric diamide]",500 to 3000
11,"CC(C)S(=O)(=O)N[C@@H](c1cn(CC(C)(C)C)c2cc(-c3ccccc3C(F)(F)F)c(F)cc12)C(F)(F)F [Example 348, (S)—N-(2,2,2-trifluoro-1-(5-fluoro-1-neopentyl-6-(2-(trifluoromethyl)phenyl)-1H-indol-3-yl)ethyl)propane-2-sulfonamide]",500 to 3000
12,"CC(C)(C)Cn1cc([C@H](NS(=O)(=O)C2CC2)C(F)(F)F)c2ccc(-c3cccnc3)cc21 [Example 383, (S)—N-(2,2,2-trifluoro-1-(1-neopentyl-6-(pyridin-3-yl)-1H-indol-3-yl)ethyl)cyclopropanesulfonamide]",500 to 3000
13,CC(C)Cn1cc(CC(=O)NS(=O)(=O)N(C)C)c2ccc(-c3ccncc3)cc21 [Compound 234],> 3000
14,"CC(C)Cn1cc(CCNS(=O)(=O)N(C)C)c2ccc(-c3cc(F)cc(F)c3)cc21 [Example 54, N-{2-[6-(3,5-difluorophenyl)-1-(2-methylpropyl)-1H-indol-3-yl]ethyl}-N,N-dimethyl-sulfuric diamide]",500 to 3000
15,"CN(C)S(=O)(=O)NCCc1cn(Cc2ccccc2F)c2cc(-c3ccncc3)ccc12 [Example 150, N-{2-[6-(pyridin-4-yl)-1-(2-fluorobenzyl)-1H-indol-3-yl]ethyl}-N,N-dimethylsulfuric diamide]",500 to 3000
16,"CC(C)Cn1cc(CCNS(=O)(=O)N(C)C)c2ccc(F)cc21 [Example 110, ({2-[6-fluoro-1-(2-methylpropyl)-1H-indol-3-yl]ethyl}sulfamoyl)dimethylamine]",500 to 3000
17,CC(C)Cn1cc(CC(N(C)S(=O)(=O)C(C)C)C(F)(F)F)c2ccc(-c3ccncc3)cc21 (centres unmarked) [Compound 274],> 3000
18,"CC(C)Cn1cc(C2CCCN(S(=O)(=O)N(C)C)C2)c2ccc(-c3ccccc3)cc21 (centres unmarked) [Example 61, 3-(1-isobutyl-6-phenyl-1H-indol-3-yl)-N,N-dimethylpiperidine-1-sulfonamide]",500 to 3000
19,"CCn1cc(CCNS(=O)(=O)N(C)C)c2ccc(Br)cc21 [Compound 157, {[2-(6-bromo-1-ethyl-1H-indol-3-yl)ethyl]sulfamoyl}dimethylamine]",500 to 3000
20,"CN(C)S(=O)(=O)NCCc1cn(C(=O)C(C)(C)C)c2cc(-c3ccncc3)ccc12 [Compound 156, 1-(3-{2-[(dimethylsulfamoyl)amino]ethyl}-6-(pyridin-4-yl)-1H-indol-1-yl)-2,2dimethylpropan-1-one]",> 3000

# From patent publication US20230339886A1 (University of Florida Research Foundation, Incorporated, priority 2020, published 2023)
